From BindingDB's records for doi:10.1002/cbic.200600287 (Mcgill University, 2007)
pIC50: −log10 of the molar value.

Experiments:
Assay in all cases: PTP Assay
[1] = target: T1, Dual specificity protein phosphatase 22 (Homo sapiens, UniProt Q9NRW4); conditions: pH 6; 25 °C
T1 sequence (Q9NRW4 whole entry): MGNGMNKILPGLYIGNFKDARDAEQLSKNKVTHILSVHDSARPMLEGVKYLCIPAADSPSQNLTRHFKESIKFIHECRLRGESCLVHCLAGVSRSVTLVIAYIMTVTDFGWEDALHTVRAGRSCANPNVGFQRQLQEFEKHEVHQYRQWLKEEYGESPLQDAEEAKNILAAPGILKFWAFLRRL
Description: (§1) PTP assay were conducted at 25 C in 96-well plates. Reaction rates were determined using a Variokan plate reader from Thermo Electron. For assay pH 7.0 absorbance was measured every 30s over 10 min and the reaction rates were calculated by linear regression. Because the p-nitrophenol product does not absorb at pH 6.0.

[2] = target: Receptor-type tyrosine-protein phosphatase F (Homo sapiens, UniProt P10586); conditions: pH 6; 25 °C
Description: as §1

[3] = target: T2, Tyrosine-protein phosphatase non-receptor type 1 (Homo sapiens, UniProt P18031); conditions: 25 °C
T2 sequence (P18031 whole entry): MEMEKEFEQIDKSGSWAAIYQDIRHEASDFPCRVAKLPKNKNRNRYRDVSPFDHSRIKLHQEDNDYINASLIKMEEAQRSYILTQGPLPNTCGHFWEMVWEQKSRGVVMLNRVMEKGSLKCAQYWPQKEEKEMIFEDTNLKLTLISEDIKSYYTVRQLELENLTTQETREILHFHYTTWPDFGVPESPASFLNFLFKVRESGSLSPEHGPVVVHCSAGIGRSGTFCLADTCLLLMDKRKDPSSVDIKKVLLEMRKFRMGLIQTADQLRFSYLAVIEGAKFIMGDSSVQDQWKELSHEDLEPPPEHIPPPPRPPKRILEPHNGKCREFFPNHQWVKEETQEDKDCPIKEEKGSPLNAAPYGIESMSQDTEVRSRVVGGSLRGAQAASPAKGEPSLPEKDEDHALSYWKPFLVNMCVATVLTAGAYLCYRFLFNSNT
Description: as §1

[4] = target: Tyrosine-protein phosphatase non-receptor type 13 (Homo sapiens, UniProt Q12923); conditions: pH 7; 25 °C
Description: as §1

[5] = target: T3, Tyrosine-protein phosphatase non-receptor type 2 (Homo sapiens, UniProt P17706); conditions: pH 7; 25 °C
T3 sequence (P17706 whole entry): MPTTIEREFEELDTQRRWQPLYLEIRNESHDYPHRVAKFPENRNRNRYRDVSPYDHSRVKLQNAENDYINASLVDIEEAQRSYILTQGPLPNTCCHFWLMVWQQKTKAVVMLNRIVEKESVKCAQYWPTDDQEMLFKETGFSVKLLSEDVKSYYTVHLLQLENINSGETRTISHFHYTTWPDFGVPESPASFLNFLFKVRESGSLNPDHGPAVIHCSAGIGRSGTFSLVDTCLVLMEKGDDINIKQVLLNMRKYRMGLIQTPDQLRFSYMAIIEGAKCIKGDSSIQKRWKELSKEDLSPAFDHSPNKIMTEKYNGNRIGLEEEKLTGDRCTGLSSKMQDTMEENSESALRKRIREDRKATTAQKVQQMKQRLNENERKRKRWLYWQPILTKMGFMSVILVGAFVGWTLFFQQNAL
Description: as §1

[6] = target: Tyrosine-protein phosphatase non-receptor type 6 (Homo sapiens, UniProt P29350); conditions: pH 7; 25 °C
Description: as §1

[7] = target: T4, Tyrosine-protein phosphatase non-receptor type 7 (Homo sapiens, UniProt P35236); conditions: pH 7; 25 °C
T4 sequence (P35236 whole entry): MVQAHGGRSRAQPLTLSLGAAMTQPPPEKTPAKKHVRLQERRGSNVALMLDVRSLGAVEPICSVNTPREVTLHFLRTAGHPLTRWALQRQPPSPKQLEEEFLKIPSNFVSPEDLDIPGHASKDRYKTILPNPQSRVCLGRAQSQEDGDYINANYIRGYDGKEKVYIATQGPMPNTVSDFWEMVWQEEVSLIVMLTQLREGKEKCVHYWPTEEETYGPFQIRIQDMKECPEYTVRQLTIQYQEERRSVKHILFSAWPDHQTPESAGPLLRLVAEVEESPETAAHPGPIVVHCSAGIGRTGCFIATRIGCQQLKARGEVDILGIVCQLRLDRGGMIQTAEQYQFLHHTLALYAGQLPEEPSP
Description: as §1

Chain of Tyrosine-protein phosphatase non-receptor type 6 (P29350 whole entry): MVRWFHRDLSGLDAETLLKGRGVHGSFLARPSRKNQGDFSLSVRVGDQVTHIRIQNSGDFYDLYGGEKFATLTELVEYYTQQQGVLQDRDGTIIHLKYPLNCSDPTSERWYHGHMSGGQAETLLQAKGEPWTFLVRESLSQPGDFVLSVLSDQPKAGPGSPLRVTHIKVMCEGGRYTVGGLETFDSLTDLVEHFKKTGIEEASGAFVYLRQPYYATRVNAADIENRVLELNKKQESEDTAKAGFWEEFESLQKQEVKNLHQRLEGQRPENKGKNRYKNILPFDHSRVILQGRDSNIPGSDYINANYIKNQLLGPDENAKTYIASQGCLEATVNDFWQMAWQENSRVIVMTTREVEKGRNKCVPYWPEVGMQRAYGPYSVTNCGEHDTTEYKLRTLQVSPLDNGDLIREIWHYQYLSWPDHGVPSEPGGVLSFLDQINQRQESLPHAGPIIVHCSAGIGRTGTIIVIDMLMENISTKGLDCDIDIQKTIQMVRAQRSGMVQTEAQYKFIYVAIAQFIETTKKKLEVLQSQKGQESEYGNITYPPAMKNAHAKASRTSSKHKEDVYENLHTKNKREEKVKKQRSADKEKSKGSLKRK
Chain of Tyrosine-protein phosphatase non-receptor type 13 (Q12923 whole entry): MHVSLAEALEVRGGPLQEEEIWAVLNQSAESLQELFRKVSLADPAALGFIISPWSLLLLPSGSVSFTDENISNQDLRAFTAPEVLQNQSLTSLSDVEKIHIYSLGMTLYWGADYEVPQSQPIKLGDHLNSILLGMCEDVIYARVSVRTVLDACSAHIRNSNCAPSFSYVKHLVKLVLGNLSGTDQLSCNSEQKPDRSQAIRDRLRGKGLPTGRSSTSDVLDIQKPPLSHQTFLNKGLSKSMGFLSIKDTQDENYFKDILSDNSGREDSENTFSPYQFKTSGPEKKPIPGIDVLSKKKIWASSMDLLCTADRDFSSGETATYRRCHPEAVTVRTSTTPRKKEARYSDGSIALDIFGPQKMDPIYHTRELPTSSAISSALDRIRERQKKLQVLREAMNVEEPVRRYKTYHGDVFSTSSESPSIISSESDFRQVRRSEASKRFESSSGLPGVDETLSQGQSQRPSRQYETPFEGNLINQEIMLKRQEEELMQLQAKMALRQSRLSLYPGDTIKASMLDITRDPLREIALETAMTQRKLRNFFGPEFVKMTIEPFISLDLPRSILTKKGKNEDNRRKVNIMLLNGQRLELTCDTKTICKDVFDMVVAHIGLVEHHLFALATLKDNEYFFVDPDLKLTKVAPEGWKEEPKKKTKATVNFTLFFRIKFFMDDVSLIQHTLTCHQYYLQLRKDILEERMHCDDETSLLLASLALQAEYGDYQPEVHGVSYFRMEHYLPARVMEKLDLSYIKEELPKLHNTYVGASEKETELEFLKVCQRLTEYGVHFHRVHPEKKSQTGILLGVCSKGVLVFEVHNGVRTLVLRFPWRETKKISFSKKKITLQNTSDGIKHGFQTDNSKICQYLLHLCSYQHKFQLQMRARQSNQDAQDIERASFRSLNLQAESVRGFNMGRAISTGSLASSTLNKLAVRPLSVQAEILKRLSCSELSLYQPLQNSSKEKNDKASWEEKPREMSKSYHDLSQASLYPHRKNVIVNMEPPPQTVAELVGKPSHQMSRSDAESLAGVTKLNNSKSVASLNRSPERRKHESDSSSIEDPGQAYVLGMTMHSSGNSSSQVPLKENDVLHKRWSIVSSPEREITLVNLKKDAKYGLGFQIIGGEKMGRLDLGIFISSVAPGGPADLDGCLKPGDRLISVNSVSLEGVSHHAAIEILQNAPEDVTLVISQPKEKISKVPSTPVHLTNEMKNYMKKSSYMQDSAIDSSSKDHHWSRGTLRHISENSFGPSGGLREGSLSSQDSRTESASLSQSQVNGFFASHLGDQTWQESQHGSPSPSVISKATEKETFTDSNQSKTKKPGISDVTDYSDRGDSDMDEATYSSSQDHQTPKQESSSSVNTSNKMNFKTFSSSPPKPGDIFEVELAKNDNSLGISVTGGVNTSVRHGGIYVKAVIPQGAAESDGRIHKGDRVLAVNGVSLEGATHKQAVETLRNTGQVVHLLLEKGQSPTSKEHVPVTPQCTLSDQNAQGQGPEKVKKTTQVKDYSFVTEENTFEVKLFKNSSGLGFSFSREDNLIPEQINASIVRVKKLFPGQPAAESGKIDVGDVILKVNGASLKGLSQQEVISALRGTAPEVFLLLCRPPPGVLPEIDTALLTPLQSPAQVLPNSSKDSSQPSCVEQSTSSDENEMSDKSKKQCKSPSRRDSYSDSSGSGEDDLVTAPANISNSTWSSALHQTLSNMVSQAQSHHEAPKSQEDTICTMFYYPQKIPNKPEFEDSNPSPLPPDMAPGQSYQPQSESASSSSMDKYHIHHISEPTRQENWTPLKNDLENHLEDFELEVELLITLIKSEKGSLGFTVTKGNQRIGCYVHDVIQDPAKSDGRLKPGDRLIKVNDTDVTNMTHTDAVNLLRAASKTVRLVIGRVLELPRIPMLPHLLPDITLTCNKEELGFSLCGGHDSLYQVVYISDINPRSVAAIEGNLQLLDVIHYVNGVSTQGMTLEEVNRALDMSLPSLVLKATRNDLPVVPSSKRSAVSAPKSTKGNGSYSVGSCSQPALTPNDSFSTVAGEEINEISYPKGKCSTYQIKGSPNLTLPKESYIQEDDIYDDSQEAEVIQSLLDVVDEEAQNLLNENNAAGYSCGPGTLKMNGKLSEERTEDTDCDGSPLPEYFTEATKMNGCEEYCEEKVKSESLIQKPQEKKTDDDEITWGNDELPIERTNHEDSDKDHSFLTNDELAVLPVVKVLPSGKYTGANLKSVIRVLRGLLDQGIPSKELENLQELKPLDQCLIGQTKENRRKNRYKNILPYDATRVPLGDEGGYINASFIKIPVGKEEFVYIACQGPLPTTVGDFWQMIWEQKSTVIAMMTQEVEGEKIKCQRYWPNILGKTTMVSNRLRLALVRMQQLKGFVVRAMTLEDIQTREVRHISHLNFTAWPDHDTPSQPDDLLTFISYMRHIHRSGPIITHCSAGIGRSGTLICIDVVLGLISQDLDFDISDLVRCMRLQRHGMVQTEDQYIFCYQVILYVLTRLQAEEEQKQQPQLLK
Chain of Receptor-type tyrosine-protein phosphatase F (P10586 whole entry): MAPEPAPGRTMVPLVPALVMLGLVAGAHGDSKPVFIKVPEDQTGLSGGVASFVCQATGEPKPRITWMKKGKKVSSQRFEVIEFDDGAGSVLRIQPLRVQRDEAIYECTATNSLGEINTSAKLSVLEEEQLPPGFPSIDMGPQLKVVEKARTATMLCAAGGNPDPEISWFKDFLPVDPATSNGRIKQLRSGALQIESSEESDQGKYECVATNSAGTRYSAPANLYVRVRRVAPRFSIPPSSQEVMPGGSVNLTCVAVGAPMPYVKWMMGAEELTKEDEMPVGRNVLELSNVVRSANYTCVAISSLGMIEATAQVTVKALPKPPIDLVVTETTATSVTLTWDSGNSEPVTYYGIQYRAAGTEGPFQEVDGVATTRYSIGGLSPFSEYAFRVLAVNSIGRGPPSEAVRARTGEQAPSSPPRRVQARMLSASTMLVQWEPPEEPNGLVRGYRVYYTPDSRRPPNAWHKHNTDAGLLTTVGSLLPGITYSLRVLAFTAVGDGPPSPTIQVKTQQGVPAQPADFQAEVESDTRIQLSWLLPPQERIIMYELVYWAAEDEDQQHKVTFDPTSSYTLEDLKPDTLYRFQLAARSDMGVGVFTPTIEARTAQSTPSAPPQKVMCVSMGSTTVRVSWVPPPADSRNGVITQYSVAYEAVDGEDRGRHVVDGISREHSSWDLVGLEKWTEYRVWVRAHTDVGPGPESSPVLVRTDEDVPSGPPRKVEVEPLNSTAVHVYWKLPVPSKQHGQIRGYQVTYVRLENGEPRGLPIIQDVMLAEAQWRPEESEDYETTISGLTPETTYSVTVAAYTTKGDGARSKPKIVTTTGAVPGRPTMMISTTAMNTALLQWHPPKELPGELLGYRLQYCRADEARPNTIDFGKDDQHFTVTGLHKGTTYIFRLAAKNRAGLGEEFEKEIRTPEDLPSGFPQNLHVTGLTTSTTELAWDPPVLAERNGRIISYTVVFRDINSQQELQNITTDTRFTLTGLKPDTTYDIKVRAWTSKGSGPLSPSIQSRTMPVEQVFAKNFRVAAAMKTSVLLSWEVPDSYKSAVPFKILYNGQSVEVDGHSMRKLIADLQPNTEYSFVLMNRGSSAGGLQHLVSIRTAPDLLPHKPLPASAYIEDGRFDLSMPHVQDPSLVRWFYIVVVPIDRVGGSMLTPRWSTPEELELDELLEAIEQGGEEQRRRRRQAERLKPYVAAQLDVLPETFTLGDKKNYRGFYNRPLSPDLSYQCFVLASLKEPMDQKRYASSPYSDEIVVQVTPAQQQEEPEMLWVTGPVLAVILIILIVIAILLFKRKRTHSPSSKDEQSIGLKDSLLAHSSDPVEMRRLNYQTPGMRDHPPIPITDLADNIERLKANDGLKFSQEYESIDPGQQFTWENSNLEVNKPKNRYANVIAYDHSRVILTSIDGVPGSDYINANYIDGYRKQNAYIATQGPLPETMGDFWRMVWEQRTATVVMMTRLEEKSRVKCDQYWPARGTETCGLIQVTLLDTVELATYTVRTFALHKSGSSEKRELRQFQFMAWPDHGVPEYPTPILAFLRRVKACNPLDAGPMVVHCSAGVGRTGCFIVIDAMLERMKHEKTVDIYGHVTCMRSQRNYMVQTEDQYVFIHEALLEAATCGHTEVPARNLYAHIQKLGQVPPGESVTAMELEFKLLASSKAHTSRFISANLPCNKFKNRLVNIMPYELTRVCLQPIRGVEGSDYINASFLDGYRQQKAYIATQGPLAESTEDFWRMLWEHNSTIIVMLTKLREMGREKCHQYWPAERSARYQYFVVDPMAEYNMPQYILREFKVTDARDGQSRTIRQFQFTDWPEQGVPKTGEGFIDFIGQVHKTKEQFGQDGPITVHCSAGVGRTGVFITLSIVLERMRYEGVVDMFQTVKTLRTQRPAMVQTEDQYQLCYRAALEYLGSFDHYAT

| Structure (SMILES) | pIC50 [3] | also measured |
| --- | --- | --- |
| COc1cc(/C=C2\SC(=S)N(c3cccc(Cl)c3)C2=O)cc([N+](=O)[O-])c1O [Thioxothiazolidinone derivative, 1] | – | pIC50 [1]: < 4.30; pIC50 [2]: < 4.30; pIC50 ([3]; pH 6): 5.37; pIC50 ([3]; pH 7): 5.39; pIC50 [4]: 5.43; pIC50 [5]: 5.28; pIC50 [6]: 5.41; pIC50 [7]: 5.03 |
| COc1cc(/C=C2\SC(=S)N(c3ccccc3)C2=O)cc([N+](=O)[O-])c1O [Thioxothiazolidinone derivative, 3] | < 4.00 | – |
| COc1cc(/C=C2\SC(=S)N(c3ccc(Cl)cc3)C2=O)cc([N+](=O)[O-])c1O [Thioxothiazolidinone derivative, 4] | 5.27 | – |
| COc1cc(/C=C2\SC(=S)N(c3cccc(F)c3)C2=O)cc([N+](=O)[O-])c1O [Thioxothiazolidinone derivative, 5] | 4.92 | – |
| COc1cc(/C=C2\SC(=S)N(c3cccc(C)c3)C2=O)cc([N+](=O)[O-])c1O [Thioxothiazolidinone derivative, 6] | 4.54 | – |
| COc1cccc(N2C(=O)/C(=C/c3cc(OC)c(O)c([N+](=O)[O-])c3)SC2=S)c1 [Thioxothiazolidinone derivative, 7] | 4.80 | – |
| COc1cc(/C=C2\SC(=S)N(c3ccc(O)cc3)C2=O)cc([N+](=O)[O-])c1O [Thioxothiazolidinone derivative, 8] | 4.54 | – |
| COc1cc(/C=C2\SC(=S)N(c3ccc(C)cc3)C2=O)cc([N+](=O)[O-])c1O [Thioxothiazolidinone derivative, 9] | 5.06 | – |
| COc1ccc(N2C(=O)/C(=C/c3cc(OC)c(O)c([N+](=O)[O-])c3)SC2=S)cc1 [Thioxothiazolidinone derivative, 10] | 5.20 | – |
| COc1cc(/C=C2\SC(=S)N(c3ccc([N+](=O)[O-])cc3)C2=O)cc([N+](=O)[O-])c1O [Thioxothiazolidinone derivative, 11] | 5.15 | – |
| COc1cc(/C=C2\SC(=S)N(c3ccc(Cl)c(Cl)c3)C2=O)cc([N+](=O)[O-])c1O [Thioxothiazolidinone derivative, 12] | 5.15 | – |
| O=C1/C(=C/c2ccc(O)c([N+](=O)[O-])c2)SC(=S)N1c1cccc(Cl)c1 [Thioxothiazolidinone derivative, 13] | 4.17 | – |
| COc1cc(/C=C2\SC(=S)N(c3cccc(Cl)c3)C2=O)ccc1O [Thioxothiazolidinone derivative, 14] | 4.36 | – |
| O=C1/C(=C/c2cc(O)c(O)c([N+](=O)[O-])c2)SC(=S)N1c1cccc(Cl)c1 [Thioxothiazolidinone derivative, 15] | 4.74 | – |
| COc1cc(/C=C2\SC(=S)N(c3cccc(Cl)c3)C2=O)cc(C(=O)O)c1O [Thioxothiazolidinone derivative, 17] | 5.14 | – |
| COc1cc(C=C2SC(=S)N(c3cccc(Cl)c3)C2=O)cc(CP(=O)(O)O)c1O [Thioxothiazolidinone derivative, 18] | < 4.00 | – |
